Source: patent publication US9060515B2, “Heterocyclic urea compounds” (BIOTA EUROPE LTD, priority 2011, dated 2015)
In brackets after ≈: the same amount, converted by molar mass. Where two headings read alike, the source gives them in different places.

Legend:
Type in all cases: cell-based
E. faecalis (ATCC 29212) = assay: Antibacterial susceptibility testing (MIC, broth microdilution or agar dilution), E. faecalis
Description: (§1) Compounds of the invention were tested for antimicrobial activity by susceptibility testing in liquid or on solid media. MICs for compounds against each strain were determined by the broth microdilution or agar dilution method according to the guidelines of the Clinical Laboratories and Standards Institute, formerly the National Committee for Clinical Laboratory Standards (Clinical Laboratories and Standards Institute. Methods for Dilution Antimicrobial Susceptibility Tests for Bacteria That Grow Aerobically; Approved Standard—Seventh Edition. Document M7-A7. CLSI, Wayne, Pa., 2006; Clinical Laboratories and Standards Institute. The Gram positive bacterial strains tested include S. aureus (Staphylococcus aureus (Isolate ID ATCC 29213)), E. faecalis (Enterococcus faecalis (Isolate ID ATCC 29212)) and S. pyogenes (Streptococcus pyogenes (Isolate ID ATCC 51339)). The Gram negative bacterial strains tested include H. influenzae (Haemophilus influenzae (Isolate ID ATCC 49247)).

S. aureus (ATCC 29213) = assay: Antibacterial susceptibility testing (MIC, broth microdilution or agar dilution), S. aureus
Description: as §1

S. pyogenes (ATCC 51339) = assay: Antibacterial susceptibility testing (MIC, broth microdilution or agar dilution), S. pyogenes; conditions: Streptococcus pyogenes, ATCC51339; read-out: S. pyogenes (ATCC 51339) minimal inhibitory concentration (MIC)
Description: as §1

[1] = Enterococcus faecalis, ATCC29212; read-out: E. faecalis (ATCC 29212) minimal inhibitory concentration (MIC)
[2] = Staphylococcus aureus, ATCC29213; read-out: S. aureus (ATCC 29213) minimal inhibitory concentration (MIC)

Row | Structure (SMILES) | MIC (E. faecalis (ATCC 29212); [1]) | MIC (S. aureus (ATCC 29213); [2]) | MIC (S. pyogenes (ATCC 51339)) | other results
1 | CCNC(=O)Nc1cc(Nc2ccccc2)c(C(=O)Nc2ccc(CP(=O)(OCC)OCC)cc2)cn1 [Compound 206] |  |  |  | MIC (E. faecalis (ATCC 29212); Enterococcus faecalis, ATCC29212, read-out: E. faecalis (ATCC 29212) minimal inhibitory concentration (MIC)): ≤ 1 µg/mL; MIC (S. aureus (ATCC 29213); Staphylococcus aureus, ATCC29213, read-out: S. aureus (ATCC 29213) minimal inhibitory concentration (MIC)): ≤ 1 µg/mL
2 | CCNC(=O)Nc1cc(Nc2ccc(F)c(F)c2)c(C(=O)Nc2ccc(CCC(=O)OCC)cc2)cn1 [Compound 215, ethyl 3-{4-[({4-[(3,4-difluorophenyl)amino]-6-[(ethylcarbamoyl)amino]pyridin-3-yl}carbonyl)amino]phenyl}propanoate] | ≤ 1 µg/mL | ≤ 1 µg/mL |  | 
3 | CCNC(=O)Nc1cc(Nc2ccc(Cl)cc2)c(C(=O)Nc2ccc(-n3cccc3C(=O)OC)cc2)cn1 [Compound 197, methyl 1-{4-[({4-[(4-chlorophenyl)amino]-6-[(ethylcarbamoyl)amino]pyridin-3-yl}carbonyl)amino]phenyl}-1H-pyrrole-2-carboxylate] | 4 µg/mL (≈ 7.5 µM) |  |  | 
4 | CCNC(=O)Nc1cc(Nc2ccccc2)c(C(=O)Nc2ccc(CN3CCS(=O)(=O)CC3)cc2)cn1 [Compound 214, N-{4-[(1,1-dioxidothiomorpholin-4-yl)methyl]phenyl}-6-[(ethylcarbamoyl)amino]-4-(phenylamino)pyridine-3-carboxamide] | ≤ 1 µg/mL | 4 µg/mL (≈ 7.65 µM) |  | 
5 | CCNC(=O)Nc1cc(Nc2ccc(F)cc2F)c(C(=O)Nc2ccc(CCC(=O)OCC)cc2)cn1 [Compound 227] | ≤ 1 µg/mL |  |  | 
6 | CCNC(=O)Nc1cc(Nc2ccc(F)cc2)c(C(=O)Nc2ccc(CN3CCOCC3)cc2)cn1 [Compound 201, 6-[(ethylcarbamoyl)amino]-4-[(4-fluorophenyl)amino]-N-[4-(morpholin-4-ylmethyl)phenyl]pyridine-3-carboxamide] | ≤ 1 µg/mL | 2 µg/mL (≈ 4.06 µM) |  | 
7 | CCNC(=O)Nc1cc(Nc2ccccc2)c(C(=O)Nc2ccnc(C(=O)OC)c2)cn1 [Compound 21, methyl 4-(6-(3-ethylureido)-4-(phenylamino)nicotinamido)picolinate] | ≤ 1 µg/mL |  |  | 
8 | CCNC(=O)Nc1cc(Nc2ccc(C#N)cc2)c(C(=O)Nc2ccc(CN3CCCC3)cc2)cn1 [Compound 203, 4-[(4-cyanophenyl)amino]-6-[(ethylcarbamoyl)amino]-N-[4-(pyrrolidin-1-ylmethyl)phenyl]pyridine-3-carboxamide] | ≤ 1 µg/mL | 2 µg/mL (≈ 4.14 µM) |  | 
9 | CCNC(=O)Nc1cc(Nc2ccc(C)c(F)c2)c(C(=O)Nc2ccc(CCC(=O)OCC)cc2)cn1 [Compound 217, ethyl 3-{4-[({6-[(ethylcarbamoyl)amino]-4-[(3-fluoro-4-methylphenyl)amino]pyridin-3-yl}carbonyl)amino]phenyl}propanoate] | ≤ 1 µg/mL |  |  | 
10 | CCNC(=O)Nc1cc(Nc2ccc(F)c(C)c2)c(C(=O)Nc2ccc(CCC(=O)OCC)cc2)cn1 [Compound 218, ethyl 3-{4-[({6-[(ethylcarbamoyl)amino]-4-[(4-fluoro-3-methylphenyl)amino]pyridin-3-yl}carbonyl)amino]phenyl}propanoate] | ≤ 1 µg/mL |  |  | 
11 | CCNC(=O)Nc1cc(Nc2cc(F)cc(F)c2)c(C(=O)Nc2ccc(CCC(=O)OCC)cc2)cn1 [Compound 234, ethyl 3-{4-[({4-[(3,5-difluorophenyl)amino]-6-[(ethylcarbamoyl)amino]pyridin-3-yl}carbonyl)amino]phenyl}propanoate] | ≤ 1 µg/mL |  |  | 
12 | CCNC(=O)Nc1cc(Nc2ccc(Cl)cc2F)c(C(=O)Nc2ccc(CCC(=O)OCC)cc2)cn1 [Compound 219, ethyl 3-{4-[({4-[(4-chloro-2-fluorophenyl)amino]-6-[(ethylcarbamoyl)amino]pyridin-3-yl}carbonyl)amino]phenyl}propanoate] | ≤ 1 µg/mL |  |  | 
13 | CCNC(=O)Nc1cc(Nc2ccccc2)c(C(=O)Nc2ccc(-n3cncn3)nc2)cn1 [Compound 27, N-(6-(1H-1,2,4-triazol-1-yl)pyridin-3-yl)-6-(3-ethylureido)-4-(phenylamino)nicotinamide] | ≤ 1 µg/mL |  |  | 
14 | CCNC(=O)Nc1cc(Nc2cccc(F)c2)c(C(=O)Nc2ccc(CCC(=O)OCC)cc2)cn1 [Compound 216, ethyl 3-{4-[({6-[(ethylcarbamoyl)amino]-4-[(3-fluorophenyl)amino]pyridin-3-yl}carbonyl)amino]phenyl}propanoate] | ≤ 1 µg/mL |  |  | 
15 | CCNC(=O)Nc1cc(Nc2ccc(F)cc2)c(C(=O)Nc2ccc(CN3CCCC3)cc2)cn1 [Compound 200, 6-[(ethylcarbamoyl)amino]-4-[(4-fluorophenyl)amino]-N-[4-(pyrrolidin-1-ylmethyl)phenyl]pyridine-3-carboxamide] | 2 µg/mL (≈ 4.2 µM) | 8 µg/mL (≈ 16.8 µM) |  | 
16 | CCNC(=O)Nc1cc(Nc2ccc(F)cc2)c(C(=O)Nc2ccc(CN3CCN(C)CC3)cc2)cn1 [Compound 202, 6-[(ethylcarbamoyl)amino]-4-[(4-fluorophenyl)amino]-N-{4-[(4-methylpiperazin-1-yl)methyl]phenyl}pyridine-3-carboxamide] | 2 µg/mL (≈ 3.96 µM) | 8 µg/mL (≈ 15.8 µM) |  | 

Row | Structure (SMILES) | MIC (E. faecalis (ATCC 29212); [1]) | MIC (S. aureus (ATCC 29213); [2]) | MIC (S. pyogenes (ATCC 51339)) | other results
17 | CCNC(=O)Nc1cc(Nc2ccccc2)c(C(=O)Nc2cccc(C(F)(F)F)c2)cn1 [Compound 48, 6-(3-ethylureido)-4-(phenylamino)-N-(3-(trifluoromethyl)phenyl)nicotinamide] |  | ≤ 1 µg/mL | 8 µg/mL (≈ 18 µM) | 
18 | CCNC(=O)Nc1cc(Nc2ccccc2)c(C(=O)Nc2ccc(N3CCC(O)CC3)nc2)cn1 [Compound 100, 6-(3-ethylureido)-N-(6-(4-hydroxypiperidin-1-yl)pyridin-3-yl)-4-(phenylamino)nicotinamide] |  | 2 µg/mL (≈ 4.21 µM) | ≤ 1 µg/mL | 
19 | CCNC(=O)Nc1cc(Nc2ccccc2)c(C(=O)Nc2ccc(N(C)C)nc2)cn1 [Compound 98, N-(6-(dimethylamino)pyridin-3-yl)-6-(3-ethylureido)-4-(phenylamino)nicotinamide] |  | ≤ 1 µg/mL | ≤ 1 µg/mL | 
20 | CCNC(=O)Nc1cc(Nc2ccccc2)c(C(=O)Nc2ccc(CC(C)(C)C(=O)OC)cc2)cn1 [Compound 129] |  | 2 µg/mL (≈ 4.09 µM) | ≤ 1 µg/mL | 
21 | CCNC(=O)Nc1cc(Nc2ccc(CO)cc2)c(C(=O)Nc2cccnc2)cn1 [Compound 128, 6-(3-ethylureido)-4-(4-(hydroxymethyl)phenylamino)-N-(pyridin-3-yl)nicotinamide] |  | 8 µg/mL (≈ 19.7 µM) | ≤ 1 µg/mL | 
22 | CCNC(=O)Nc1cc(Nc2ccc(F)c(Cl)c2)c(C(=O)Nc2ccc(CCC(=O)OCC)cc2)cn1 [Compound 226, ethyl 3-{4-[({4-[(3-chloro-4-fluorophenyl)amino]-6-[(ethylcarbamoyl)amino]pyridin-3-yl}carbonyl)amino]phenyl}propanoate] | ≤ 1 µg/mL | 2 µg/mL (≈ 3.79 µM) |  | 
23 | CCNC(=O)Nc1cc(Nc2ccccc2)c(C(=O)Nc2ccc(NC(C)C)nc2)cn1 [Compound 95, 6-(3-ethylureido)-N-(6-(isopropylamino)pyridin-3-yl)-4-(phenylamino)nicotinamide] |  | 2 µg/mL (≈ 4.61 µM) | ≤ 1 µg/mL | 
24 | CCNC(=O)Nc1cc(Nc2ccccc2)c(C(=O)Nc2ccc(OC)cc2)cn1 [Compound 33, 6-(3-ethylureido)-N-(4-methoxyphenyl)-4-(phenylamino)nicotinamide] |  | 4 µg/mL (≈ 9.87 µM) | 16 µg/mL (≈ 39.5 µM) | 
25 | CCNC(=O)Nc1cc(Nc2ccccc2)c(C(=O)Nc2ccnn2C)cn1 [Compound 10, 6-(3-Ethylureido)-N-(1-methyl-1H-pyrazol-5-yl)-4-(phenylamino)nicotinamide] |  | 16 µg/mL (≈ 42.2 µM) | 2 µg/mL (≈ 5.27 µM) | 
26 | CCNC(=O)Nc1cc(Nc2ccccc2)c(C(=O)Nc2ccc(CCC(=O)NC)cc2)cn1 [Compound 120, 6-(3-ethylureido)-N-(4-(3-(methylamino)-3-oxopropyl)phenyl)-4-(phenylamino)nicotinamide] |  | 2 µg/mL (≈ 4.34 µM) | ≤ 1 µg/mL | 
27 | CCNC(=O)Nc1cc(Nc2ccccc2)c(C(=O)Nc2ccn(CC(=O)O)n2)cn1 [Compound 233, {3-[({6-[(ethylcarbamoyl)amino]-4-(phenylamino)pyridin-3-yl}carbonyl)amino]-1H-pyrazol-1-yl}acetic acid] | 2 µg/mL (≈ 4.72 µM) |  |  | 
28 | CCNC(=O)Nc1cc(Nc2ccccc2)c(C(=O)Nc2cc(F)cc(F)c2)cn1 [Compound 66, N-(3,5-difluorophenyl)-6-(3-ethylureido)-4-(phenylamino)nicotinamide] |  | ≤ 1 µg/mL | 4 µg/mL (≈ 9.72 µM) | 
29 | CCNC(=O)Nc1cc(Nc2ccccc2)c(C(=O)Nc2ccc(CP(=O)(O)O)cc2)cn1 [Compound 207, {4-[({6-[(ethylcarbamoyl)amino]-4-(phenylamino)pyridin-3-yl}carbonyl)amino]benzyl}phosphonic acid] | 8 µg/mL (≈ 17 µM) |  |  | 
30 | CCNC(=O)Nc1cc(Nc2ccc(C#N)cc2)c(C(=O)Nc2ccc(CN3CCN(C)CC3)cc2)cn1 [Compound 205, 4-[(4-cyanophenyl)amino]-6-[(ethylcarbamoyl)amino]-N-{4-[(4-methylpiperazin-1-yl)methyl]phenyl}pyridine-3-carboxamide] | ≤ 1 µg/mL | 2 µg/mL (≈ 3.9 µM) |  | 
31 | CCNC(=O)Nc1cc(Nc2ccccc2)c(C(=O)Nc2ccccc2)nn1 [Compound 212, 6-[(ethylcarbamoyl)amino]-N-phenyl-4-(phenylamino)pyridazine-3-carboxamide] | 8 µg/mL (≈ 21.3 µM) |  |  | 
32 | CCNC(=O)Nc1cc(Nc2ccc(C(=O)OCC)cc2)c(C(=O)Nc2cccnc2)cn1 [Compound 15, Ethyl 4-(2-(3-ethylureido)-5-(pyridin-3-ylcarbamoyl)pyridin-4-ylamino)benzoate] |  | ≤ 1 µg/mL | ≤ 1 µg/mL | 
